Read-outs that look alike come from different tables or passages of the source.
Assays:
Type in all cases: biochemical
[1] = system: nitrile hydratase of Rhodococcus sp. Cr4; details: for effect on enzyme activity (words): inhibitors
Experimental: (§1) The standard assay method for the nitrile hydratase activity used in the following Examples as follows. The enzyme reaction is initiated by adding 3-cyanopyridine or 2-hydroxy-4-methylthiobutyronitrile (HMBN) as the substrate compound. In the case of 3-cyanopyridine, incubation was continued at 20° C. for 10 minute, in the case of HMBN, at 20° C. for 15 minutes. When 3-cyanopyridine was used in the reaction, 0.1 ml of 2 N hydrochloric acid was added to the reaction and the mixture was shaken vigorously to stop the reaction; when HMBN was used in the reaction, 0.1 ml of the reaction solution was added to 0.9 ml of 0.1% (v/v) phosphoric acid and the mixture was shaken vigorously to stop the reaction. The reaction solution was analyzed by HPLC.
• 10% (v/v) HMBN was added to initiate the reaction. • The mixture was incubated with shaking at 20° C. for 10 minutes. • 0.1% (v/v) H3PO4 was added to stop the reaction. • Centrifugation. • HPLC analysis.
Inhibitors to the enzyme were studied. With the standard composition of reaction solution shown in Table 1, various inhibitors were added at a final concentration 1.0 mM or 0.1 mM to the solutions containing 2.92 U enzyme; after the mixtures were incubated at 20° C. for 10 minutes, the reaction was carried out for 15 minutes.

[2] = system: nitrile hydratase of Rhodococcus sp. Cr4; experiment: Substrate specificity of the purified nitrile hydratase (amide formation by HPLC); details: for substrate suitability: purified nitrile hydratase
Experimental: as §1
• 0.3 M 3-cyanopyridine was added to initiate the reaction. • The mixture was incubated with shaking at 20° C. for […]. • 2 N HCl was added to stop the reaction. • Centrifugation. • HPLC analysis.
The substrate specificity of the enzymewas examined. With the standard composition reaction solution shown in table 2, 2.92 U enzyme was incubated with various types of substrates, instead of 3-cyanopyridine; the generation of amides in the reaction solution was analyzed by HPLC. Thus, the relative activity was determined. The types of substrate compounds added, final concentrations thereof, reaction times, and HPLC conditions used for the analyses of products corresponding to the respective substrates are shown in Table 6. The HPLC conditions (1)-(9) are indicated next to Table 6.
The conditions for HPLC were as follows: • (1) Column: Waters Spherisorb 5 μODS2 (4.6×150 mm); • Solvent: 10 mM KH2PO4(pH 2.8)/acetonitrile (v/v)=9:1; • Flow rate: 1.0 ml/min; • Detection: 230 nm; • Injection volume: 5 μl. • (2) Column: Waters Spherisorb 5 μODS2 (4.6×150 mm); • Solvent: 10 mM KH2PO4(pH 2.8)/acetonitrile (v/v)=9:1; • Flow rate: 1.0 ml/min; • Detection: 230 nm; • Injection volume:5 μl. • (3) Column: Waters Spherisorb 5 μODS2 (4.6×150 mm); • Solvent: 5 mM KH2PO4 (pH 2.8)/acetonitrile (v/v)=12:7; • Flow rate: 1.0 ml/min; • Detection: 230 nm; • Injection volume: 5 μl. • (4) Column: Waters Spherisorb 5 μODS2 (4.6×150 mm); • Solvent: 10 mM KH2PO4(pH 2.5)/acetonitrile (v/v)=99:1; • Flow rate: 1.0 ml/min; • Detection: 210 nm; • Injection volume: 5 μl. • (5) Column: Waters Spherisorb 5 μODS2 (4.6×150 mm); • Solvent: 10 mM KH2PO4(pH 2.5)/acetonitrile (v/v)=99:1; • Flow rate: 1.0 ml/min; • Detection: 230 nm; • Injection volume: 5 μl. • (6) Column: Spherisorb S5ODS2 (4.6×150 mm) • Solvent: 0.1% (v/v) phosphate/acetonitrile (v/v)=99:1; • Flow rate: 1.0 ml/min; • Detection: 210 nm; • Injection volume: 5 μl. • (7) Column: Spherisorb S5ODS2 (4.6×150 mm); • Solvent: 0.1% (v/v) phosphate/acetonitrile (v/v)=9:1; • Flow rate: 1.0 ml/min; • Detection: 210 nm; • Injection volume: 5 μl; • Temperature: 40° C. • (8) Column: Spherisorb S5ODS2 (4.6×150 mm); • Solvent: 0.1%(v/v) phosphate/acetonitrile (v/v)=9:1; • Flow rate: 1.0 ml/min; • Detection: 230 nm; • Injection volume: 5 μl • Temperature: 40° C. • (9) Column: Spherisorb S5ODS2 (4.6×150 mm); • Solvent: 5 mM KH2PO4 (pH 2.8)/acetonitrile (v/v)=12:7; • Flow rate: 1.0 ml/min; • Detection: 210 nm; • Injection volume: 5 μl; • Temperature: 40° C. 13. The Effect of Inhibitors on the Enzymatic Activity

[3] = system: nitrile hydratase of Rhodococcus sp. Cr4; experiment: Effect of coexisting Ni++ ion with various substrates
Experimental: Then, with the standard composition of reaction solution shown in table 2, various types of substrates, instead of 3-cyanopyridine, were added to the solutions containing 2.92 U enzyme to study their effects on the activity. […] The addition of Ni^++ ion was assumed to specifically enhance the reaction efficiency when the substrate was a α-hydroxynitrile (Table 11).
The incubation was prolonged for 10 minutes at 20° C. using 2.92 U enzyme. 17. Determination of N-Terminal Amino Acid Sequence

[4] = system: nitrile hydratase of Rhodococcus sp. Cr4
[5] = compound 1.0 mM, Free = 100, HMBN substrate, 20° C.
[6] = compound used as substrate, activity for 3-cyanopyridine = 100%, 20° C., 2.92 U enzyme
[7] = compound used as substrate, methanol added (final conc. 20% v/v), 20° C., 2.92 U enzyme

O[C@H](CS)[C@H](O)CS (racemic) [Dithiothreitol]
Relative activity (%) [1, 5]: 93.4%

N#CCC(N)=O [2-Cyanoacetamide]
Relative activity (%) [2, 6]: 46.3%

N#Cc1ccccn1 [2-Cyanopyridine]
activity, Free [3]: 100 | activity, NiCl2 (1 mM) [3]: 97 | Relative activity (%) [2, 6]: 223% | substrate suitability [2]: suitable substrates

N#CCc1c[nH]c2ccccc12 [3-Indolylacetonitrile]
Relative activity (%) [2, 7]: 2.33%

N#CCCN [3-aminopropyonitlile]
activity, Free [3]: 100 | activity, NiCl2 (1 mM) [3]: 97

N#Cc1ccncc1 [4-Cyanopyridine]
activity, Free [3]: 100 | activity, NiCl2 (1 mM) [3]: 99 | Relative activity (%) [2, 6]: 127%

O=C(O)c1cc(SSc2ccc([N+](=O)[O-])c(C(=O)O)c2)ccc1[N+](=O)[O-] [5-5′-Dithiobis]
Relative activity (%) [1]: 99.1%

CC#N [Acetonitrile]
Relative activity (%) [2]: 14.6%

C=CC#N [Acrylonitrile]
Relative activity (%) [2, 6]: 114%

O=[N+]([O-])[O-].[Ag+] [AgNO3]
Relative activity (%) [4]: 7.85% | effect on enzyme activity (words) [4]: markedly inhibited

N#CCN [Aminoacetonitlile]
activity, Free [3]: 0 | activity, NiCl2 (1 mM) [3]: 0

N#Cc1ccccc1 [Benzonitrile]
Relative activity (%) [2]: 138%

[Ca+2].[Cl-].[Cl-] [CaCl2]
Relative activity (%) [4]: 96.4%

CC=CC#N [Crotononitrile]
activity, Free [3]: 100 | activity, NiCl2 (1 mM) [3]: 103 | Relative activity (%) [2, 6]: 87.4%

O=S(=O)([O-])[O-].[Cu+2] [CuSO4]
Relative activity (%) [4]: 109%

N#Cc1cnccn1 [Cyanopyrazine]
Relative activity (%) [2, 6]: 114%

NCCS [Cysteamine]
Relative activity (%) [1]: 106%

N[C@@H]1CONC1=O [D-Cycloserine]
Relative activity (%) [1, 5]: 94.8%

O=C(O)CN(CCN(CC(=O)O)CC(=O)O)CC(=O)O [EDTA]
Relative activity (%) [1]: 101%

N#CCCO [Etylene cyanohydrin]
activity, Free [3]: 100 | activity, NiCl2 (1 mM) [3]: 91

[Cl][Fe]([Cl])[Cl] [FeCl3]
Relative activity (%) [4]: 100%

O=S(=O)([O-])[O-].[Fe+2] [FeSO4]
Relative activity (%) [4]: 78.9%

[Cl][Hg][Cl] [HgCl2]
Relative activity (%) ([4]; metal 1.0 mM, Free = 100, incubated 20° C. 10 minutes): 7.48% | effect on enzyme activity (words) ([4]; metal ions): inhibited | effect on enzyme activity (words) ([4]; metal ions, listed as Hg^++): markedly inhibited

N#CCO [Hydroxyacetonitlile]
activity, Free [3]: 0 | activity, NiCl2 (1 mM) [3]: 0

NO [Hydroxylamine]
Relative activity (%) [1, 5]: 62.1% | effect on enzyme activity (words) [1]: markedly inhibited

O=C(O)CI [Iodoacetate]
Relative activity (%) [1]: 97.0%

CC(C)C#N [Isobutyronitrile]
Relative activity (%) [2, 7]: 40.9%

CC(C)CC#N [Isovaleronitrile]
Relative activity (%) [2, 7]: 2.71%

N#CCC#N [Malononitrile]
substrate suitability [2]: suitable substrates

N#CC(O)c1ccccc1 (stereo not shown) [Manderonitlile]
activity, Free [3]: 100 | activity, NiCl2 (1 mM) [3]: 201 | effect of Ni++ on activity with this substrate ([3]; Ni++ added): enhanced twice

C=C(C)C#N [Methacrylonitrile]
Relative activity (%) [2, 6]: 93.7%

[Cl][Mn][Cl] [MnCl2]
Relative activity (%) [4]: 96.7%

CCN1C(=O)C=CC1=O [N-Ethylmaleimide]
Relative activity (%) [1, 5]: 101%

[N-]=[N+]=[N-].[Na+] [NaN3]
Relative activity (%) [1]: 98.5%

NNc1ccccc1 [Phenylhydrazine]
Relative activity (%) [1, 5]: 8.19% | effect on enzyme activity (words) ([1]; listed as phenyl hydrazine): markedly inhibited | effect on enzyme activity (words) ([1]; listed as phenylhydrazine): inhibited

CCC#N [Propionitrile]
Relative activity (%) [2, 6]: 173%

O=S(=O)(O)c1cc(O)c(O)c(S(=O)(=O)O)c1 [Tiron]
Relative activity (%) [1, 5]: 132%

NC(N)=O [Urea]
Relative activity (%) [1, 5]: 95.7%

O=S(=O)([O-])[O-].[Zn+2] [ZnSO4]
Relative activity (%) [4]: 84.1%

N#Cc1cccc(Cl)c1 [m-Chlorobenzonitrile]
Relative activity (%) [2]: 7.18%

CCCC#N [n-Butyronitrile]
activity, Free [3]: 100 | activity, NiCl2 (1 mM) [3]: 94 | Relative activity (%) [2, 7]: 379% | substrate suitability [2]: suitable substrates

CCCCCC#N [n-Capronitrile]
Relative activity (%) [2, 7]: 18.1%

CCCCC#N [n-Valeronitrile]
Relative activity (%) [2, 7]: 118%

N#Cc1ccccc1Cl [o-Chlorobenzonitrile]
Relative activity (%) [2, 7]: 58.6%

N#Cc1ccc(Cl)cc1 [p-Chlorobenzonitrile]
Relative activity (%) [2]: 28.4%

O=C(O)c1cc[c]([Hg][Cl])cc1 [p-Chloromercuribenzoate]
Relative activity (%) [1, 5]: 97.7%

C/C(N)=C/C#N [β-aminochlotononitlile]
activity, Free [3]: 0 | activity, NiCl2 (1 mM) [3]: 0
